The test system of test [1] is bladder function. The test is described as follows: In vivo assay of bladder function (cystometry) in conscious rats. Details: species or system rat. On the procedure:
This study was performed in order to assess the effects of compounds on various aspects of bladder function in conscious rats. See, Clouse, 2012, Urology 79(6):1410e1-1410e6. Rats were prepared with indwelling polyethylene catheters positioned into the bladder through the dome and exteriorized at the scapular level. […] pressure was monitored by connecting the catheter to a commercial strain gauge via a T-connector that permitted the infusion of solutions and drugs. Cystometric recording commenced 48 hours after catheter implantation. Animals were continuously administered saline, with or without test compounds, through the catheter, at a rate of 2 mL/hr. Urine was collected and weighed using a force transducer and intravesical pressure was continually monitored in order to assess micturition amplitude, frequency and volume and bladder capacity. Saline perfusions were supplemented with test compounds in order to determine the effects on each of the above bladder function parameters.

The subject of test [2] is isolated detrusor bladder muscle. The test is described as follows: In vitro assay on isolated bladder detrusor muscle strips, EFS-induced contractions in organ bath. Details: species or system guinea pig. Conditions: for IC50, inhibition of EFS-induced detrusor contractions: cumulative concentration-response, isolated guinea pig detrusor strips; for steady-state inhibition of EFS-induced contractile response: drug 0.01% in organ bath. On the procedure: Whole bladders were removed from euthanized female guinea pigs, longitudinal detrusor muscle strips were dissected from each bladder and were mounted in a conventional glass organ bath and perfused continuously with an oxygenated Krebs solution. Detrusor contractions were elicited in response to electrical field stimulation (EFS) and were recorded using isometric force transducers linked to a data acquisition software system. After an equilibration period, tissue strips were subjected to regular EFS for a period of 30 minutes or until stable baseline contractions were attained.

Test [3] relates to micturition pattern. Conditions: animal model of IC and OAB; cited from earlier work.
The subject of test [4] is noxious urinary bladder distention. Conditions: in vivo; cited from earlier work.
The mark [5] stands for this setting: infusion of 0.3% solution into bladder, conscious rats.

We go through four molecules from US9044482B2, “Use of aminoindane compounds in treating overactive bladder and interstitial cystitis” (priority 2012, dated 2015).

Molecules are shown by their SMILES.

In the case of `Cc1ccccc1N(CC[C@H]1CCCC[N+]1(C)C)C1Cc2ccccc2C1.[I-]` [(R)-1,1-dimethyl-2-[2-((indan-2-yl)(2-methylphenyl)amino)ethyl]piperidinium iodide], the “duration of action on micturition frequency” value in test [1] (compared to lidocaine) was “longer duration of action”.
For `Cc1ccccc1N(CC[C@H]1CCCC[N+]1(C)C)C1Cc2ccccc2C1.[Br-]` [example 43, (R)-1,1-dimethyl-2-[2-((indan-2-yl)(2-methylphenyl)amino)ethyl]piperidinium iodide], in test [1] (infusion of 0.3% solution), the “period of effect on bladder capacity and micturition volume after administration” value was found to be 2 h. For the same molecule, in test [1] (setting [5]), the bladder capacity result is given as “increase in bladder capacity” and the micturition volume entry is reported as “decrease in micturition volume”. In test [2] (0.01%), the “time for which steady state inhibition was maintained after drug had been eliminated from the organ bath” value is given as “at least 2 hours”. Moreover, in test [2], the “IC50, inhibition of EFS-induced detrusor contractions” value is about 0.0001% and the “steady-state inhibition of EFS-induced contractile response” value was 30-45%. For the same molecule, the “potency relative to lidocaine alone” value in test [2] (from IC50 for inhibition of EFS-induced detrusor contractions) is listed as “about 10 fold”.
Take `CCN(CC)CC(=O)Nc1c(C)cccc1C` [lidocaine, reference compound]: the “micturition pattern as determined by cystometry” value in test [3] was “normalizes the micturition pattern”. For the same molecule, in test [2] (0.01%, by 2 hours after washing out), the “recovery of EFS-induced contractile response after washout” value is given as “around 80 % of predrug levels”. In test [2], the “IC50, inhibition of EFS-induced detrusor contractions” value is about 0.001% and the “steady-state inhibition of EFS-induced contractile response” value is about 40%.
Consider `Cc1cccc(C)c1OCC(C)N` (stereo not shown) [mexilitine], for which the “painful sensation of noxious urinary bladder distention” value in test [4] is recorded as “prevents the painful sensation”.
